Measurements from patent US20100069393A1, “METHOD OF TREATMENT AND AGENTS USEFUL FOR SAME” (PRANA BIOTECHNOLOGY LIMITED, priority 2006, published 2010).

Key:
[1] = Neurotoxicity assay: MTS viability of primary cortical neuronal cultures; assay type: cell-based, mouse; details: BL6Jx129sv, mouse, primary cortical neuronal cultures, Neuronal cells, read-out: Cytotoxicity (% viable at 1 and 10 uM); for viability at 4 days, 1 uM: test compound 1 uM; for viability at 4 days, 10 uM: test compound 10 uM
Method: Media was then replaced with Neurobasal media (Invitrogen Life Technologies) and B27 supplements (Invitrogen Life Technologies). Cultures were maintained at 37° C. in 5% CO2. Prior to experimentation, the culture medium was replaced with Neurobasal media and B27 minus antioxidants (Invitrogen Life Technologies).
Cell viability is determined using the MTS assay. Culture medium is replaced with fresh neurobasal medium plus B27 supplements minus antioxidants. 1/10th volume MTS solution (Cell Titre 96 Aqueous One, Promega Corporation) and incubated at 37° C., 2 hrs. 200 microlitre aliquots are measured with a spectrophotometer at 560 nm.
Neuronal cortical cells were cultured for five days as per Assay 2 in NB media and B27 supplement.
On day six the test compounds were added to the neuronal cell cultures in NB media and B27 supplement minus antioxidants.
Test compounds were dissolved in 100% DMSO to a concentration of 2.5 mM (10 mM if excess compound was weighed out per vial—then diluted to 2.5 mM). […] Test compounds were not added directly to cells, instead they were added to a 48 well ‘Drug Plate’ as comprised below:
The Drug Plate was incubated at 37° C. for 15 mins. 200 μl of each well was added in triplicate to the corresponding cell plate. The cell plate was incubated at 37 C, for 4 days.
On completion of the assay, 1/10 volume MTS was added per well of plate (i.e. 25 μl/250 μl). The plates were incubated at 37 C for 2 hrs, and then absorbance was read at 560 nm.

[2] = Mice plasma concentration; assay type: in vivo; details: for Mice plasma concentration: presence in plasma at one or two time points (between 30 min and 4 h); for Mice plasma concentration (single dose) / Mice plasma concentration at 10 mg/kg: one or two time points (between 30 min and 4 h)
[3] = In vivo toxicity, visual observations; details: number of days
[4] = Cytotoxicity: viability of M17 cells; details: human, M17 neuroblastoma cells, Cytotoxicity (% viable at 1 and 10 uM); for viability at 1 uM: test compound 1 uM; for viability at 10 uM: test compound 10 uM

SMILES	Mice plasma concentration [2]	Mice plasma concentration (single dose) [2]	Mice plasma concentration at 10 mg/kg [2]	viability at 4 days, 1 uM [1]	viability at 4 days, 10 uM [1]	Toxicity at 30 mg/kg [3]	viability at 1 uM [4]	viability at 10 uM [4]	Toxicity at 10 mg/kg [3]
O=c1c(-c2ccc(Cl)cc2)cnc2c(O)c(I)ccn12	Up to 450 ng/mL	–	–	41%	33%	10 days, mild toxic signs	–	–	–
Cc1cnc(-n2cnc3c(O)c(Cl)cc(Cl)c3c2=O)s1	–	–	–	94%	70%	10 days, mild signs	–	–	–
O=c1c2c(Cl)cc(Cl)c(O)c2ncn1N1CCCCC1	–	–	–	98%	51%	10 days, none	87.9%	72.7%	–
O=c1c2c(Cl)cc(Cl)c(O)c2ncn1-c1ccc(Cl)cn1	–	–	–	94%	58%	10 days, none	86.9%	70.5%	–
O=c1c2c(Cl)cc(Cl)c(O)c2ncn1N1CCCC1	–	–	–	101%	88%	10 days, none	–	–	–
O=c1c2c(Cl)cc(Cl)c(O)c2ncn1CCc1ccccn1	Up to 59 ng/mL	–	–	100%	92%	10 days, none	–	–	–
Br.O=c1c2c(Cl)cc(Cl)c(O)c2ncn1Cc1cccc(Cn2cnc3c(Cl)c(Cl)cc(Cl)c3c2=O)n1	–	–	–	89%	67%	10 days, none	94.9%	26.8%	–
CCCCn1cnc2c(O)c(Cl)cc(Cl)c2c1=O	–	–	–	104%	85%	–	105%	95.4%	–
CCn1cnc2c(O)c(Cl)cc(Cl)c2c1=O	–	–	–	93%	58%	–	104%	95.9%	–
CCn1cnc2c(O)c(I)ccc2c1=O	–	–	–	–	–	10 days, none	–	–	–
CCn1cnc2c(O)c(I)cc(Cl)c2c1=O	Up to 1802 ng/mL	–	–	–	–	10 days, 2/4 deaths	101%	50.4%	–
O=c1c2c(Cl)cc(I)c(O)c2ncn1CC1CC1	–	–	–	–	–	–	97.9%	82.3%	At 10 mg/kg: 10 days, none
CC(C)c1cnc2c(O)c(I)ccn2c1=O	–	–	–	–	–	10 days, 1/4 death, remaining 1/3 mild sings	96.7%	44.2%	–
CCCCc1cnc2c(O)cccn2c1=O	–	–	–	–	–	10 days, none	73.6%	37%	–
CCCCc1cnc2c(O)c(I)ccn2c1=O	–	–	–	–	–	10 days, 2/4 deaths	102%	58.7%	–
Br.CN(C)Cc1nc2c(O)c(Cl)cc(Cl)c2c(=O)[nH]1	Up to 642.6 ng/mL	–	–	–	–	10 days, none	97.4%	100%	–
CCCCc1cnc2c(O)cccn2c1=S	Up to 57 ng/ml ng/mL	–	–	–	–	7 days, 2/4 deaths	–	–	–
CC(C)n1cnc2c(O)c(I)ccc2c1=O	Up to 277 ng/ml ng/mL	–	–	–	–	10 days, 1/4 deaths	–	–	–
O=c1c2ccc(I)c(O)c2ncn1-c1ccc(F)cc1F	–	–	–	–	–	6 days, 2/4 deaths	90.3%	80.3%	–
O=C(NCc1ccc(F)cc1)c1cnc2c(O)c(I)ccn2c1=O	–	–	–	–	–	7 days, 4/4 deaths	89.6%	23.4%	–
CCCCNC(=O)C1=CN=C2C(O)=C(I)C=CN2C1	Up to 27,598 ng/ml ng/mL	–	–	–	–	10 days, none	85.3%	63.4%	–
CN(C)Cc1ccc2c(Cl)cc(I)c(O)c2n1	–	–	–	–	–	1 day, 3/4 deaths	97.9%	24.4%	–
O=C1NC(=O)c2cc(-n3cnc4c(O)c(Cl)cc(Cl)c4c3=O)ccc21	–	–	–	–	–	10 days, none	85.4%	93.3%	–
O=C(O)Cn1cnc2c(O)c(Cl)cc(Cl)c2c1=O	–	–	–	–	–	10 days, none	105%	101%	–
Nc1cc(Cn2cnc3c(O)c(Cl)cc(Cl)c3c2=O)ccn1	–	–	–	–	–	10 days, 1 of 4 deaths	95.1%	93.9%	–

Further lines, with some results ahead:

Mice plasma concentration [2]	Mice plasma concentration (single dose) [2]	Mice plasma concentration at 10 mg/kg [2]	SMILES	viability at 4 days, 1 uM [1]	viability at 4 days, 10 uM [1]	Toxicity at 30 mg/kg [3]	viability at 1 uM [4]	viability at 10 uM [4]	Toxicity at 10 mg/kg [3]
Up to 2694 ng/mL	–	–	O=C(NCCc1c[nH]cn1)c1ccc2c(Cl)cc(Cl)c(O)c2n1	91%	84%	–	–	–	–
Up to 1000 ng/mL	–	–	CN(C)Cc1cnc2c(Cl)cc(Cl)c(O)c2n1.Cl	106%	93%	–	–	–	–
–	Below 100 ng/mL (single dose)	–	O=c1[nH]cnc2c(O)c(Cl)cc(Cl)c12	100%	93%	3 days, none	–	–	–
–	Up to 350 ng/mL (single dose)	–	Oc1c(C2CC2)ncc2cccnc12	100%	98%	6 days, none	–	–	–
–	Up to 262 ng/mL in mice (single dose)	–	CN1CCCC1CCn1cnc2c(O)c(Cl)cc(Cl)c2c1=O (stereo not drawn)	105%	94%	10 days, none	–	–	–
–	Up to 10 ng/mL (single dose)	–	O=c1c2c(Cl)cc(Cl)c(O)c2ncn1CCN1CCOCC1	98%	81%	10 days, none	–	–	–
Up to 207 ng/mL	–	–	CN1CCN(n2cnc3c(O)c(Cl)cc(Cl)c3c2=O)CC1	96%	91%	10 days, none	–	–	–
Up to 3896 ng/mL	–	–	CCn1nccc1-n1cnc2c(O)c(Cl)cc(Cl)c2c1=O	102%	94%	10 days, none	–	–	–
Up to 39 ng/mL	–	–	Cc1ccc(-n2cnc3c(O)c(Cl)cc(Cl)c3c2=O)nc1	96%	83%	10 days, none	–	–	–
–	Up to 80 ng/mL (single dose)	–	COc1ccc(-n2cnc3c(O)c(Cl)cc(Cl)c3c2=O)nc1	122%	93%	10 days, none	–	–	–
Up to 439 ng/mL	–	–	Br.Cc1cccnc1Cn1cnc2c(O)c(Cl)cc(Cl)c2c1=O	99%	88%	10 days, 3/4 mild signs	–	–	–
–	Up to 1096 ng/mL (single dose)	–	CCCn1cnc2c(O)c(I)ccc2c1=O	–	–	10 days, none	–	–	–
Up to 1538 ng/mL	–	–	O=c1c2ccc(I)c(O)c2ncn1Cc1ccccn1	–	–	10 days, none	93.8%	84.5%	–
–	–	At 10 mg/kg: Up to 7082 ng/mL	CCc1cnc2c(O)c(I)ccn2c1=O	–	–	–	82.5%	23.3%	At 10 mg/kg 10 days, none
Up to 2289 ng/mL	–	–	Br.CCN(CC)Cc1nc2c(O)c(Cl)cc(Cl)c2c(=O)[nH]1	–	–	10 days, none	106%	99.1%	–
Up to 128.4 ng/mL	–	–	O=c1c2cccc(O)c2ncn1Cc1cccc(Cn2cnc3c(O)cccc3c2=O)n1	–	–	10 days, none	117%	106%	–
Up to 409 ng/ml ng/mL	–	–	CC(C)c1cnc2c(O)cccn2c1=O	–	–	10 days, none	99.7%	45.6%	–
–	Up to 125.5 ng/mL (Single dose)	–	CCNC(=O)c1cnc2c(O)c(CC)ncc2c1.Cl	–	–	–	84.4%	92.1%	–
Up to 4060 ng/mL	–	–	CCCn1cnc2c(O)c(I)cc(Cl)c2c1=O	–	–	–	120%	100%	–
Up to 690 ng/ml ng/mL	–	–	CCCc1cnc2c(O)cccn2c1=O	–	–	10 days, none	79.1%	45.2%	–
–	–	At 10 mg/kg: Up to 309 ng/ml ng/mL	CC(C)Cn1cnc2c(O)c(I)ccc2c1=O	–	–	–	111%	68.2%	At 10 mg/kg: 10 days, none
